From US20210214683A1, “METHODS FOR ISOLATING TUMOR-SPECIFIC IMMUNE CELLS FROM A SUBJECT FOR ADOPTIVE CELL THERAPY AND CANCER VACCINES” (CRITITECH, INC., priority 2018, published 2021)
Values joined by “and” are separate entries in the source; they are usually repeats but may differ in a detail not shown here. Equal values may be shown once. Marks after values point to notes of the source that are not given here.

What was measured:
[1] = test system: UM-UC-3 bladder cancer cell line; assay: Human bladder cancer (UM-UC-3) mouse xenograft study: tumor volume; format: in vivo, Hsd:Athymic Nude-Foxn1nu nude mice; conditions: Docetaxel IV 30 mg/kg, 3 cycles
Method: (§1) Tumor volume was determined with calipers. […] Animals were weighed 2×/week.
At day 18 after tumor implant, when average tumor size was between 50-325 mm^3, animals were sorted into five groups with equal average tumor sizes and were treated as shown in Table 25 below.
The second treatments (2nd cycle) occurred 7 days following first treatment (1st cycle) and third treatments (3rd cycle) occurred 14 days following the first treatment. The docetaxel solution IV was administered via the tail vein.
Vehicle (Control): Diluted 1 ml of the 1% Polysorbate 80/8% Ethanol in normal saline (0.9% Sodium Chloride for Injection) reconstitution solution with 1.5 mL of normal saline (0.9% Sodium Chloride for Injection, USP). […] Vigorously hand shook the vial with inversions for 1 minute. […] Allowed the suspension to sit undisturbed for at least 5 minutes to reduce entrapped air and foam. […] Vortexed to mix.

[2] = UM-UC-3 mouse xenograft study: body weight and peripheral neuropathy; format: in vivo, Hsd:Athymic Nude-Foxn1nu nude mice; conditions: Docetaxel IV 3 cycles
Method: as §1

[3] = test system: UM-UC-3 bladder cancer cell line; assay: UM-UC-3 mouse xenograft study: H&E histopathology (viable carcinoma size on slide, necrosis, TLS); format: in vivo, Hsd:Athymic Nude-Foxn1nu nude mice
[4] = test system: UM-UC-3 bladder cancer cell line; assay: UM-UC-3 mouse xenograft study: immunohistochemistry (F4/80, CD68 macrophage infiltrate, CD45R); format: in vivo, Hsd:Athymic Nude-Foxn1nu nude mice; conditions: IV Docetaxel 3 cycles
[5] = test system: human renal cell adenocarcinoma (786-O cell line); assay: Rat 786-O xenograft: H&E and immunohistochemical evaluation (viable carcinoma size, necrosis, CD11b/CD68 infiltrate, TLS); format: in vivo, Sprague-Dawley Rag2; Il2rg null (SRG) rat
Source text: Tissue Collection: Primary Tumor (Inoculation site)—A final tumor measurement was taken prior to excision. Tumors were weighed after excision. Approximately ½ of each tumor (based on visual assessment) was flash frozen in 2-methylbutane on dry ice, the tumor piece was weighed when possible before it is flash frozen. The remaining was fixed in 10% neutral buffered formalin. Tumors were also collected from animals not reaching enrollment volume. Secondary Tumors—Any organ with visible tumors were collected and fixed in 10% neutral buffered formalin. Formalin fixed tissues were stored at room temperature. Frozen tissues were stored at −80° C. All tissue was stored for up to 3 months. Pictures of all tumors; primary and secondary if present, were taken.
Microscopic Examination: Tissues fixed with 10% NBF were embedded in paraffin. Each tumor was cut into 2-3 pieces and embedded and sectioned together.

[6] = test system: Renca tumor cells; assay: Renca syngeneic xenograft study: primary tumor volume (groups 1-7); format: in vivo, female BALB/c mice; conditions: IV docetaxel Day 1 (10 mg/kg) and Day 11 (5 mg/kg)
Method: (§2) The schedule in Table 39 was followed.
All treatments were initiated on the same day.
(§3) Cell Injection Volume: 0.1 mL/mouse. Age at Start Date: 8 to 12 weeks. […] Body Weight: 5/2 then tiwk to end. Caliper Measurement: tiwk to end. Double caliper measurements were performed for Groups 8-10. […] The group was not euthanized and recovery was allowed.
(§4) Endpoints: Groups 1-7: Endpoint TGI. Animals were monitored as a group.

[7] = test system: Renca tumor cells; assay: Renca syngeneic xenograft study: untreated secondary tumor growth (groups 8-10); format: in vivo, female BALB/c mice; conditions: IV docetaxel; second Renca injection day 15
Method: as §2, §3, §4

[8] = test system: immune cells in the blood; assay: Renca syngeneic xenograft study: flow cytometry of blood (CD45+, CD4+, CD8+, Treg, MDSC, M1, M2); format: in vivo, female BALB/c mice; conditions: IV Docetaxel, individual animals
Method: Blood Collection: Collected full volume blood by terminal cardiac puncture under isoflurane anesthesia. Processed blood for: Whole Blood: anti-coagulant—K2EDTA, preservation—Cooled 4° C., shipping condition—4° C. (wet ice). Retained at CRL-NC for flow cytometry. See Flow panel in Table 40 below.
(§5) Peripheral blood and tumor tissue were collected for analysis via flow cytometry. Cell types analyzed included T-Cells: CD4+, CD8+ (Tumor Suppression); Treg (Tumor Promotion); M1 Macrophages (Tumor Suppression); M2 Macrophages (Tumor Promotion); and M2 Macrophages (Tumor Promotion).

[9] = test system: immune cells in tumor tissue; assay: Renca syngeneic xenograft study: flow cytometry of tumor tissue; format: in vivo, female BALB/c mice; conditions: IV docetaxel, individual animal
Method: Organ Collection: Tumor (divide into 2 parts). […] Sent to laboratory for IHC staining. Part 2: preservation—processed to single cell suspension, shipping condition—4° C. (wet ice). Retained at CRL-NC for flow cytometry. See Flow panel in Table 40 below. Tumor preservation for early euthanasia in Groups 2-10: Excised tumor and surrounding area from the mammary fat pad area (cranial) to just past tumor (caudal). The region included the inguinal lymph node. Sectioned this sample every 4 mm from the cranial to caudal end and enclosed in separate cassettes labeled in order.
as §5

[10] = IV Docetaxel 3 cycles, 2 animals

In the case of `CC(=O)O[C@@]12CO[C@@H]1C[C@H](O)[C@@]1(C)C(=O)[C@H](O)C3=C(C)[C@@H](OC(=O)[C@H](O)[C@@H](NC(=O)OC(C)(C)C)c4ccccc4)C[C@@](O)([C@@H](OC(=O)c4ccccc4)[C@H]21)C3(C)C` [Docetaxel, docetaxel], the “efficacy in relation to initial tumor size” value [1] is reported as “somewhat effective at treating small tumors, but not very effective in treating large tumors”, the “tumor volumes over the study (61 days), after an initial decrease” value [1] is reported as “subsequently increased” and the “initial animal weight loss compared with nDoce IT 1, 2, 3 cycles” value [2] is reported as “generally greater”. The “peripheral neuropathy compared with nDoce IT 3 cycles” value [2] was “greater signs of peripheral neuropathy”, the “General histological observations (H&E)” value ([3]; Docetaxel Solution IV 3 cycles) was “many viable appearing tumor masses with some macrophage and occasional lymphocytic response along with some tumor necrosis” and the “Maximum size of viable invasive carcinoma on the slide >10 mm (animals)” value [3, 10] was 2*. The “Number of animals with 11-50% of tumor showing necrosis” value [3, 10] was 1, the “Number of animals with 50-90% of tumor showing necrosis” value [3, 10] was 1 and the “Maximum tumor size on slide (mm)” value ([3]; IV Docetaxel 3 cycles, individual animals B1, B3) was 15 mm and 11 mm. For the same molecule, the “maximum dimension of tumor mass on the slide, individual cases” value ([3]; Intravenous Docetaxel 3 cycles, 2 cases) was 11 mm and 15 mm, the “geographic tumor cell necrosis, share of the tumor area, individual cases” value ([3]; Intravenous Docetaxel 3 cycles, cases B1, B3) was 11-50% and 50-90% and the “F4/80 immunohistochemistry observation (FIG. 87)” value [4] was “Very little tumor cell destruction and few scattered mononuclear immune cells among vast number of viable tumor cells”. The “Macrophage infiltrate density: Mild (animals)” value ([4]; 2 animals, H&E and CD68) was 2, the “histology compared with the vehicle control (FIG. 93)” value ([5]; Docetaxel (IV) 3 cycles, female rat) was “no difference” and the “Number of animals with residual viable carcinoma >10 mm” value ([5]; IV docetaxel, 2 animals, maximum dimension on slide) was 2. The “residual viable carcinoma nodules, size on the slide” value ([5]; both IV docetaxel animals (3 cycles)) was “greater than 10 mm”, the “tumor volume compared to vehicle” value [6] was “No difference in tumor volume” and the “growth rate of the secondary Renca tumors” value [7] was “did not reduce the growth rate of the secondary Renca tumors”. The “CD45 (% of Live)” value [8] was 97 % of Live, the “CD45 Count” value [8] was 1200000 and the “MDSC Count” value [8] was 1000000. For the same molecule, the “Treg Count” value [8] was 1300 and 870, the “CD8 (% of CD45)” value [9] was 0.75% and 0.5% and 0.28% and 0.31% (2×) and 0.061% and 0.32% and 0.45% and 0.81% and 0.33% and the “CD8 Count” value [9] was 33 and 40 and 26 and 9 and 36 and 270. For the same molecule, the “CD45 (% of Live)” value [9] was 73%, the “Conv CD4 (% of CD45)” value [9] was 0.44% and 0.16% and 0.58% and 0.62% and 0.59% and the “Conv CD4 Count” value [9] was 54 and 93 and 140 and 23 and 50 and 670. The “M1 Mac Count” value [9] was 460 and 700, the “M2 Mac (% of CD45)” value [9] was 28% and the “MBSC (% of CD45)” value [9] was 25.1% and 32.8% and 42.5% and 44% and 83.3% and 20% and 70.4% and 37.3% and 10.4%. The “Treg (% of CD45)” value [9] was 0.55% and 0.32% and 0.62% and 0.16% and 0.54% and 0.21% and 0.42% and 0.6% and the “Treg Count” value [9] was 69 and 44 and 30 and 23 and 17 and 520.

In the case of `CC(=O)O[C@@]12CO[C@@H]1C[C@H](O)[C@@]1(C)C(=O)[C@H](O)C3=C(C)[C@@H](OC(=O)[C@H](O)[C@@H](NC(=O)OC(C)(C)C)c4ccccc4)C[C@@](O)([C@@H](OC(=O)c4ccccc4)[C@H]21)C3(C)C` [Doce], the “Number of animals with <5% of tissue showing necrosis” value ([5]; IV Doce, 2 animals) is reported as 2 and the “Number of animals with Mild lymphohistiocytic infiltrate density” value ([5]; IV Doce, 2 animals, H/E and CD11b staining, semi quantitative) is reported as 2.
